Measured values reported in US11185528B2, “ALDA-1 treatment and prevention of pulmonary disease” (University of South Florida, priority 2018, dated 2021).

How the values were obtained:
ALDH2 [1] = molecular target: T1, ALDH2 (Homo sapiens, UniProt P05091); assay: ALDH2 enzymatic activity assay (340 nm) on mitochondrial lysate of HMVEC; format: cell-based
T1 construct: Cells obtained were human microvascular endothelial cells (HMVECs); endogenous in cells; host or cells: HMVEC / HMVEC-L (human lung microvascular endothelial cells)
T1 sequence (P05091 18-517): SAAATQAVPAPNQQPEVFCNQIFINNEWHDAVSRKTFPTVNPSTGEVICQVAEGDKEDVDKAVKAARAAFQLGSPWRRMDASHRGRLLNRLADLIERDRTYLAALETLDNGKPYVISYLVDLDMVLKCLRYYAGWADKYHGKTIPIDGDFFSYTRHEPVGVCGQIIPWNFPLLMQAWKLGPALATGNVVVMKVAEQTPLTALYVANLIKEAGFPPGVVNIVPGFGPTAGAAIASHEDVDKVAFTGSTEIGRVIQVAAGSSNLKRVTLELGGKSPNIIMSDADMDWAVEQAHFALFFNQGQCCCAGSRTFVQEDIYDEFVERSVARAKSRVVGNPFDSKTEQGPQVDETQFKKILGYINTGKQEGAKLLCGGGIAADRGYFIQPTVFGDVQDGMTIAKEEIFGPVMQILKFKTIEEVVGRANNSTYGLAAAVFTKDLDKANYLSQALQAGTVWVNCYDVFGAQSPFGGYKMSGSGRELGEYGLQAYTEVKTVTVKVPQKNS
Protocol: (§1) Cells obtained were human microvascular endothelial cells (HMVECs). Cell culture medium was EBM-2 containing 10% FBS plus antibiotics. Assays were MitoSOX, JC1, Histology, Western blot, and ALDH2 activity. Antibodies used were mouse anti-ALDH2 antibody, Cytochrome C, and Beclin (cell signaling).
(§2) HMVECs were seeded and, after reaching confluence, treated with DMSO and Alda-1. Cells were then exposed to normoxia or hyperoxia at different time points. After 24, 48, and 72 hours, cells were collected for mitochondrial analyses.
(§3) HMVEC's were preserved in EGM-2 MV media (Lonza, Wakersville, Md.) and supplemented with FBS (25 ml), Hydrocortisone (0.2 ml), hFGF-B (2.0 ml), VEGF (0.5 ml), R3 IGF-1 (0.5 ml), Ascorbic acid (0.5 ml), hEGF (0.5 ml), GA-1000 (0.5 ml) at 37° C. in a 5% carbon dioxide-humidified incubator to maintain sufficient cell growth. The cultured cells were validated for confluence (around 70%) and exposed to hyperoxia for 48 hours with and without Alda-1.
The enzymatic activity of ALDH2 was measured by transformation of acetaldehyde to acetic acid (Chen et al., 2008). The HMVEC-L cells were cultured as mentioned above, followed by 300 μl of buffer (10 mM DTT, 100 mM Tris-HCl pH 8.0, 20% glycerol, 1% Triton X-100) and centrifuged at 55000 g for 30 minutes at 4° C. […] The specificity of enzyme reaction was expressed as nmol NADH/minute/mg protein.

4HNE = assay: Oxidative stress assay, 4HNE adduct competitive ELISA on whole cell lysate; format: cell-based, human; details: HMVEC pretreated with 20 μM, hyperoxia 48 hours
Protocol: as §3
The samples of whole cell lysate (50 μg) were seeded in each well. Oxidative stress was measured by an oxiselect 4HNE adduct competitive ELISA kit (Cell Biolabs), according to the instructions of kit.

Bax = assay: Western blot of whole cell lysate, Bax; format: cell-based, human; details: HMVEC pretreated with 20 μM, hyperoxia 48 hours, normalized to β-actin
Protocol: (§4) The HMVEC-L cells were cultured and after reaching confluence (70%), were exposed to hyperoxia with or without Alda-1 for 48 hours. The concentration was determined by the proOX p100 sensor (Biospherix). After hyperoxia, the cell pellets were collected by centrifugation and the cell pellets were suspended in lysis buffer (20 mM Tris HCL, pH7.4, 150 mM Nacl, 0.5% Triton-x 100) and the supernatant was collected after centrifugation at high speed (14000 g) for 15 minutes at 4° C. The amount of protein was calculated by BCA assay kit (Pierce, Rockford, Ill.). Equivalent amount of protein (15 μg) subjected to SDS-PAGE using between 4-20% tris-glycine gel (Bio-rad) after which electro transfer with PVDF membrane was performed, followed by blocking in 5% skim milk with washes with TBST. The membranes were treated with primary and secondary antibodies. The bands were developed by pierce EC1 (Thermo Fischer scientific) and films with protein bands were scanned and analyzed densitometrically by NIH ImageJ software. The ratio of protein to loading control was taken and analyzed in percentages.

hyperoxia-induced damage = assay: Example 5: mice exposed to hyperoxia 48 hours, lung lysate immunoblot; format: in vivo, C57BL/6 mice; details: 20 μM via Alzet pumps
Protocol: C57BL/6 mice were pretreated with DMSO (control) and 20 μM Alda-1 (administered via Alzet pumps), then exposed to hyperoxia for 48 hours. The mice were divided into three groups: Room air, hyperoxia (48 hour)+DMSO, and hyperoxia (48 hour)+Alda-1. The lung tissues were harvested, and lysates evaluated by immunoblot analysis.

ALDH2 [2] = assay: Western blot of whole cell lysate, ALDH2 expression; format: cell-based, human; details: HMVEC pretreated with 20 μM, hyperoxia 48 hours, normalized to β-actin
Protocol: as §4

cytochrome C = assay: Western blot of whole cell lysate, cytochrome C; format: cell-based, human
Protocol: as §1, §2
as §4, with “Equivalent amount of protein (15 μg) subjected to SDS-PAGE using between 4-20% tris-glycine gel (Bio-rad) after which electro transfer with PVDF membrane was performed, followed by blocking in 5% skim milk with washes with TBST. The membranes were treated with primary and secondary antibodies.” left out

[3] = system: hyperoxia-induced acute lung injury; assay: Example 4: mice exposed to hyperoxia 48 hours, lung lysate immunoblot and BAL fluid analysis; format: in vivo, C57BL/6 mice; details: 20 mM via alzet pumps
Protocol: C57BL/6 mice were exposed to hyperoxia for 48 hours with DMSO (Control) and Alda-1 (20 mM) via alzet pumps on the dorsal side of mice. The mice were divided into four groups: normoxia+DMSO (room air), normoxia+Alda-1, hyperoxia+DMSO, and hyperoxia+Alda-1. The lungs were harvested and the bronchoalveolar lavage (BAL) fluid was collected and analyzed by immunoblot and cytokine levels.

[4] = system: human microvascular endothelial cells (HMVEC); assay: JC-1 staining, mitochondrial membrane potential; format: cell-based
Protocol: as §1, §2
HMVEC-L cells were maintained in a EGM-2 (Lonza) media supplemented with FBS (25 ml), Hydrocortisone (0.2 ml), hFGF-B (2.0 ml), VEGF (0.5 ml), R3 IGF-1 (0.5 ml), Ascorbic acid (0.5 ml), hEGF (0.5 ml), GA-1000 (0.5 ml) at 37° C. in a 5% carbon dioxide humidified incubator to maintain a sufficient cell growth. The HMVEC-L cells were plated at density of 1×10,000 cells in a cell view dish with glass bottom (Thomas scientific). When cells attained 70% confluency, they were exposed to hyperoxia for 48 hours with Alda-1 and without Alda-1. Following exposure to hyperoxia, the HMVEC-L cells were washed by HBSS solution (without Ca+ and Mg+) (Gibco). […] The live cell imaging was conducted using fluorescence microscopy (Olympus). The green and red images were captured in fluorescence and images were quantified by image J by red to green ratio.

[5] = system: human microvascular endothelial cells (HMVECs); assay: MitoSOX mitochondrial ROS production; format: cell-based; details: Example 1
Protocol: as §1, §2

acute lung injury = assay: Example 6: mice exposed to 100% oxygen 48 hours, BAL fluid, Diff Kwik staining, H&E staining, western blot; format: in vivo, C57BL/6 mice; details: 20 μM via osmotic pumps
Protocol: The C57BL/6 mice were embedded with osmotic pumps and continuously injected with either DMSO or Alda-1 (20 μM), then they were exposed to 100% oxygen 48 hours. The lung samples, as well as Bronchial Alveolar Lavage Fluid, were collected for the evaluation of infiltration of cytokines, inflammation, autophagy, and apoptosis by Diff Kwik staining, H&E staining, and western blot.

[6] = HMVECs, Example 1, hyperoxia, 24 and 48 hours

Compound: O=C(NCc1ccc2c(c1)OCO2)c1c(Cl)cccc1Cl [Alda-1, N-(1,3-Benzodioxol-5-ylmethyl)-2,6-dichlorobenzamid]
- increase in ALDH2 activity compared to hyperoxia without pretreatment (ALDH2 [1]; HMVEC mitochondrial extract, 20 μM, hyperoxia 48 hours): 45%
- ALDH2 activity (ALDH2 [1]; HMVECs, Example 1, during both normoxia and hyperoxia): elevated
- decrease in 4HNE accumulation compared to untreated HMVEC exposed to hyperoxia (4HNE): 26%
- decrease in Bax compared to hyperoxia without pretreatment (Bax): 25%
- PTEN-induced kinase 1 (PINK1) level vs hyperoxic controls (hyperoxia-induced damage): decrease
- mitofusin 1 (MFN1) level in lung lysates vs hyperoxia only (hyperoxia-induced damage): decreased levels
- mitofusin 2 (MFN2) level in lung lysates vs hyperoxia only (hyperoxia-induced damage): decreased levels
- effect on ALDH2 expression in hyperoxia (ALDH2 [2]): no effect
- decrease in cytochrome C compared to hyperoxia without pretreatment (cytochrome C; HMVEC pretreated with 20 μM, hyperoxia 48 hours, normalized to β-actin): 64%
- Cytochrome C release (cytochrome C; [6]): decreased
- Drp1 level in lung lysate vs DMSO [3]: decreased levels
- OPA1 level in lung lysate vs DMSO [3]: decreased levels
- infiltration of macrophages in BAL fluid vs DMSO [3]: less infiltration
- increase in mitochondrial membrane potential (JC-1 red to green ratio) compared to hyperoxia without treatment ([4]; HMVEC, 20 μM, hyperoxia 48 hours): 1.62 fold
- mitochondrial membrane potential [4, 6]: rescued
- mitochondrial ROS production [5]: suppressed
- LC3B (western blot) (acute lung injury): reduced
- NF-κB-p65 (western blot) (acute lung injury): reduced
- autophagy (acute lung injury): decrease
- cytochrome C release (western blot) (acute lung injury): reduced
- cytokine and neutrophil infiltration and inflammation, DMSO mice vs Alda-1 mice (acute lung injury): more cytokine and neutrophil infiltration and elevated inflammation than mice treated with Alda-1
- inflammation (acute lung injury): decrease
- oxidative stress (acute lung injury): decrease
